Reference: article PMC9967152 (International Journal of Molecular Sciences, 2023)
Where a SMILES comes first, the peptide text is derived from it. [ ]: non-standard residue; d: D form. The star is where a group is joined. Daunorubicin(13-NOCH2CO) = COc1cccc2c1C(=O)c1c(O)c3c(c(O)c1C2=O)C[C@@](O)(C(C)=NOCC(=O)*)C[C@@H]3O[C@H]1C[C@H](N)[C@H](O)[C@H](C)O1; Nle = CCCC[C@H](N)C(=O)O

What was measured:
[1] = system: MDA-MB-231 human breast adenocarcinoma cells; assay: MTT assay, in vitro cytostatic effect; type: cell-based; settings: Homo sapiens, MDA-MB-231, 24 h treatment at 3.125–25 µM, then cultured up to 72 h, mean ± SD, n = 2 independent experiments with four parallels
Description: (§1) Cells were distributed into 96-well tissue culture plates with an initial cell number of 5.0 × 10^3 per well. After 24 h incubation at 37 °C, the cells were treated with the compounds in 200 µL final volume containing 1.0 v/v% DMSO and 10% H2O. […] After incubation, the cells were washed twice with a serum-free medium. To determine the in vitro cytostatic effect, the cells were further cultured up to 72 h in a 10% serum-containing medium. A solution of 3-(4,5-dimethylthiazol-2-yl)-2,5-diphenyltetrazolium bromide and MTT-solution, (45 µL, 2 mg/mL, final concentration: […]) were added to each well. The respiratory chain [67] and other electron transport systems reduce MTT, and thereby form non-water-soluble violet formazan crystals within the cell. […] After 3 h of incubation, the cells were centrifuged for 5 min at 1000 g and the supernatant was removed. The obtained formazan crystals were dissolved in DMSO (100 μL) and the optical density (OD) of the samples was measured at λ = 540 and 620 nm, respectively, using ELISA Reader (iEMS Reader, Labsystems, Finland). OD620 values were subtracted from OD540 values. The percentage of cytostasis was calculated by using the following equation:Cytostatic effect (%) = [1 − (ODtreated/ODcontrol)] × 100(1)
(§2) Values of ODtreated and ODcontrol correspond to the optical densities of the treated and the control cells, respectively. In each case, two independent experiments were carried out with four parallel measurements. The 50% inhibitory concentration (IC50) values were determined from the dose–response curves. The curves were defined using Microcal™ Origin 2018 software: cytostasis was plotted as a function of concentration, fitted to a sigmoidal curve, and based on this curve, the half-maximal inhibitory concentration (IC50) value was determined. IC50 represents the concentration of a compound that is required for 50% inhibition in vitro and is expressed in micromolar units.

[2] = system: MDA-MB-453 human metastatic epithelial breast carcinoma cells; assay: MTT assay, in vitro cytostatic effect; type: cell-based; settings: Homo sapiens, MDA-MB-453, 24 h treatment at 3.125–25 µM, then cultured up to 72 h, mean ± SD, n = 2 independent experiments with four parallels
Description: as §1, §2

[3] = system: PC-3 human prostate adenocarcinoma cells; assay: MTT assay, in vitro cytostatic effect; type: cell-based; settings: Homo sapiens, 24 h treatment at 3.125–25 µM, then cultured up to 72 h, mean ± SD, n = 2 independent experiments with four parallels
Description: as §1, §2

MRC-5 human fibroblasts = assay: Toxicity on non-cancerous cells (dose-response curves); type: cell-based; settings: Figure S15
Description: The lack of toxicity of the conjugates on healthy cells was checked on MRC-5 human fibroblasts, proving that they are non-toxic on non-cancerous cells (see Supplementary Materials, Figure S15).
Figure S15. Dose-response curves of the PDCs and Dau on MRC-5 human fibroblast cell line. Only […]
Figure S16. Flow cytometry measurements for the uptake of all the PDCs on MDA-MB-231 (A), MDA-MB-453 (B) and PC-3 (C) human cancer cell lines. The percentage of cells containing the Dau-conjugates was evaluated on four concentrations (%, mean ± SD, n= 2). Given that above 12.5 µM the internalisation may not only be receptor-mediated, this concentration was considered to com-pare the uptake of the bioconjugates. […]

[4] = system: PC-3 human prostatic adenocarcinoma xenograft in NOD-SCID mice; assay: In vivo tumour growth inhibition, subcutaneous PC-3 xenograft; design: species or system mouse; settings: free drug 1 mg/kg, two treatments, n = 8
Description: The testing of the antitumour conjugates was carried out in a murine xenograft model. It was established by inoculating subcutaneously 100 µL of cell suspension of PC-3 prostate cancer cells with a concentration of 2 × 10^7 cells/mL.
Once the tumour volume reached 60 mm^3, mice were randomised and assigned to different groups for each treatment, respectively 0.9% saline as control, free daunorubicin, L5, and L6. Each group consisted of eight mice. Peptide–drug conjugates were injected intraperitoneally every 5th day, five times in total (daunorubicin dosage of 10 mg/kg for each treatment). In the case of free daunorubicin, two treatments were administered at the same time points as the first two treatments with conjugates, with a dosage of 1 mg/kg, the maximum tolerated dose (MTD). Weight and tumour size of mice were monitored throughout the whole experiment, two times per week. On day 33, mice were euthanized, and primary tumour, heart, lung, liver and spleen were harvested and stored in 4% formalin (Molar Chemicals, Halásztelek, Hungary). After 2–3 days of incubation in formalin, tissue samples were examined macroscopically. Organs and primary tumours from the different treatment groups were weighed and inspected under a stereomicroscope to see any occurrent changes in morphology compared to the controls.

mice = settings: mouse experimental model; cited from earlier work
Description: Before testing the effect of our newly developed PDCs on tumour growth in vivo, we performed a chronic toxicity study to determine the ideal dosage of the compounds. Administration of daunorubicin is shown to cause severe cardiotoxic side effects, therefore, its maximum tolerated dose is 1 mg/kg in the case of our experimental model. However, when conjugated to targeting moieties, its side effects can be reduced; moreover, its tumour inhibition capabilities can be increased.

[5] = Metabolism in rat liver lysosomal homogenate; type: in vitro ADME; settings: 0.2 M NaOAc pH 5.05, 37 °C, conjugate–lysosomal protein 1:10 (w/w), HPLC-MS, triplicates
Description: All the conjugates contain a cathepsin B cleavable spacer, either GFLG or LRRY, to allow the release of the toxic payload in lysosomes after receptor-mediated internalisation. We explored the metabolism of L1, L3, L5 and L6 in rat liver lysosomal homogenate to mimic this situation. The experiment was performed over 72 h, sampling at 0 min, 15 min, 30 min, 1 h, 2 h, 6 h, 24 h and 72 h in triplicates. All the (Dau=Aoa-LRRY)–BBN (7-14) conjugates have a similar degradation profile and they quickly release the active metabolite Dau=Aoa-Leu-OH, which can be detected after 15 min (Figure 3). […] Its signal cannot be detected anymore already after 1 h.
The rat liver lysosomal homogenate was prepared based on our previously published procedure, with small modifications: livers from two male Wistar rats (32.6 g and 41.2 g, respectively) were collected, minced with a knife and homogenised in two volumes of ice-cold 0.3 M sucrose, using a T25 Ultra Turrax homogenizer (∼100 mL). […] The protein concentration was determined by measuring the absorbance at 260 nm and 280 nm, and was calculated using the formula: Concentration (μg/μL) = 1.55 ∗ A280 − 0.76 ∗ A260; it was determined as 71.76 μg/μL. […]
The conjugates (2.5 μg/μL in DMSO, 5 μL) were diluted with 0.2 M NaOAc solution (pH 5.05, 495 μL) to 0.025 μg/μL. […] The composition of the samples was determined by HPLC-MS.

[6] = Stability in incomplete (serum-free) DMEM; type: in vitro ADME; settings: 25 µM, 37 °C, 600 rpm, LC–MS, n = 2
Description: The conjugates were incubated in incomplete DMEM for 3 h (similarly to the internalisation studies) or in 2.5% FBS containing DMEM for 24 h (conditions for the MTT assay). […] No significant loss of L1 and L5 (<20%) or L6 (<30%) was observed after 3 h (see Supplementary Materials, Figure S17).
DMSO stock solutions of the conjugates (2.5 mM) were diluted in DMEM free from or containing 2.5% FBS, to a final concentration of 25 μM. The mixture was incubated and stirred at 37 °C, 600 rpm, and 30 µL aliquots were collected after 0 min, 0.5, 1, 2, 4, 8 and 24 h, in duplicates. Then, to each sample, 90 µL of 0.1% formic acid containing MeCN was added and the samples were frozen at −25 °C for ≥30 min to aid protein precipitation. Large FBS components were removed by centrifugation (15 min, 5000 g, 4 °C). Aliquots of 50 µL supernatant were diluted with an equal volume of ddH2O + 0.1% formic acid and analysed by LC–MS. Control measurements were performed in the same manner (25 μM bioconjugate in 100% ddH2O).

[7] = Stability in mouse plasma; type: in vitro ADME; settings: 37 °C, HPLC-MS
Description: Due to their low IC50 values and internalisation on the tested cell lines, conjugates L1, L5 and L6 were chosen for investigation of their stability in mouse plasma, as potential candidates for in vivo studies. They were incubated at a concentration of 10 µM, with mouse plasma for 24 h at 37 °C. Samples were collected at 0 h, 30 min, 1 h, 2 h, 4 h, 8 h and 24 h and analysed by HPLC-MS. […] Furthermore, after 2 h, L1 starts to release the toxic metabolite Dau=Aoa-Leu-OH, whereas this happens only after 24 h for L5 and L6, in a considerably low amount (see Supplementary Materials, Figures S18–S20).
The conjugates were dissolved in ddH2O containing 10% DMSO (stock solution: 100 μM) and diluted with mouse plasma to a final concentration of 10 μM. The mixture was incubated and stirred at 37 °C, 600 rpm, and 30 µL aliquots were collected after 0 min, 0.5, 1, 2, 4, 8 and 24 h, in triplicates. Then, to each plasma sample, 90 µL of 0.1% formic acid containing MeCN was added, and the samples were frozen at −25 °C for ≥30 min to aid protein precipitation. Large plasma proteins were removed by centrifugation (15 min, 5000× g, 4 °C). Aliquots of 50 µL supernatant were diluted with an equal volume of ddH2O + 0.1% formic acid and analysed by LC–MS. Control measurements were performed in the same manner (10 μM bioconjugate in 100% ddH2O).

Compound COc1cccc2c1C(=O)c1c(O)c3c(c(O)c1C2=O)C[C@@](O)(C(C)=O)C[C@@H]3O[C@H]1C[C@H](N)[C@H](O)[C@H](C)O1 [Dau, daunorubicin, reference compound] has an IC50 [1] of 900 ± 60 nM, an IC50 [2] of 810 ± 70 nM and an IC50 [3] of 750 ± 10 nM. For the same compound, the “Toxicity on MRC-5 human fibroblasts” value (MRC-5 human fibroblasts) was “reveals toxicity”, the “Day at which fitness of mice decreased to a critical state” value [4] was 26 days and the “Effect on tumour growth” value [4] was “did not significantly reduce tumour growth”. For the same compound, the Maximum tolerated dose (mice) was 1 mg/kg.

For CCCC[C@H](NC(=O)[C@H](CC(C)C)NC(=O)[C@H](Cc1c[nH]cn1)NC(=O)CNC(=O)[C@@H](NC(=O)[C@H](C)NC(=O)[C@H](Cc1c[nH]c2ccccc12)NC(=O)[C@H](CCC(N)=O)NC(=O)[C@H](Cc1ccc(O)cc1)NC(=O)[C@H](CCCNC(=N)N)NC(=O)[C@H](CCCNC(=N)N)NC(=O)[C@H](CC(C)C)NC(=O)CON=C(C)[C@]1(O)Cc2c(O)c3c(c(O)c2[C@@H](O[C@H]2C[C@H](N)[C@H](O)[C@H](C)O2)C1)C(=O)c1c(OC)cccc1C3=O)C(C)C)C(N)=O [L1, (Dau=Aoa)-LRRY-BBN(7-14)[Nle14]] ({Daunorubicin(13-NOCH2CO)}-LRRYQWAVGHL[Nle]-NH2), the “Time after which the signal of the intact conjugate cannot be detected anymore” value [5] was ≤ 1 h, the “Loss of conjugate after 3 h” value [6] was < 20% and the “Time after which release of the toxic metabolite Dau=Aoa-Leu-OH starts” value ([7]; 10 µM, for L5 and L6 in a considerably low amount) was 2 h. The remaining at 8 h, 10 μM ([7]; 600 rpm, n = 3, read-out: Detected fraction after 8 h) was 20%, the half-life at 10 μM ([7]; 600 rpm, n = 3, read-out: t1/2 in mouse plasma (converted)) was 3.8 h and the time to release of active metabolite Dau=Aoa-Leu-OH was < 30 min.
